Data reported in ChEMBL document CHEMBL1201861, “Genomics of Drug Sensitity in Cancer screening data, Wellcome Trust Sanger Institute”.

Experiments:
Experiment in all cases: cells
[1] = tested on: CaR-1; type: functional, cell-based, Homo sapiens; conditions: Homo sapiens, CaR-1;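 also: growth inhibition of human CaR-1 cancer cells, read out with a cell viability assay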
Description: SANGER: Inhibition of human CaR-1 cell growth in a cell viability assay.

[2] = tested on: ChaGo-K-1; type: functional, cell-based; conditions: Homo sapiens;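 also: growth inhibition of ChaGo-K-1 cells, read out with a cell viability assay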
Description: SANGER: Inhibition of human ChaGo-K-1 cell growth in a cell viability assay.

[3] = tested on: DMS-273; type: functional, cell-based, Homo sapiens; conditions: Homo sapiens, DMS-273
Description: SANGER: Inhibition of human DMS-273 cell growth in a cell viability assay.

[4] = tested on: DOHH-2; type: functional, cell-based; conditions: Homo sapiens;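 also: growth inhibition of human DOHH-2 cells, read out with a cell viability assay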
Description: SANGER: Inhibition of human DOHH-2 cell growth in a cell viability assay.

[5] = tested on: DU-145; type: functional, cell-based, Homo sapiens; conditions: Homo sapiens, DU-145
Description: SANGER: Inhibition of human DU-145 cell growth in a cell viability assay.

[6] = tested on: EKVX; type: functional, cell-based, Homo sapiens; conditions: Homo sapiens, EKVX;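 also: growth inhibition of human EKVX cells, read out with a cell viability assay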
Description: SANGER: Inhibition of human EKVX cell growth in a cell viability assay.

[7] = tested on: EW-3; type: functional, cell-based; conditions: Homo sapiens;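 also: cell viability assay read-out, IC50 reflects inhibition of growth of the EW-3 cells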
Description: SANGER: Inhibition of human EW-3 cell growth in a cell viability assay.

[8] = tested on: HCC 2998; type: functional, cell-based, Homo sapiens; conditions: Homo sapiens, HCC 2998;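 also: growth inhibition of human HCC2998 cells, measured with a cell viability read-out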
Description: SANGER: Inhibition of human HCC2998 cell growth in a cell viability assay.

[9] = tested on: HCC38; type: functional, cell-based, Homo sapiens; conditions: Homo sapiens, HCC38;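 also: cell viability assay on the human HCC38 cell line, with IC50 marking the concentration that inhibits cell growth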
Description: SANGER: Inhibition of human HCC38 cell growth in a cell viability assay.

[10] = tested on: HDLM-2; type: functional, cell-based; conditions: Homo sapiens;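 also: cell viability assay measuring suppression of HDLM-2 proliferation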
Description: SANGER: Inhibition of human HDLM-2 cell growth in a cell viability assay.

[11] = tested on: HN; type: functional, cell-based, Homo sapiens; conditions: Homo sapiens, HN
Description: SANGER: Inhibition of human HN cell growth in a cell viability assay.

[12] = tested on: HT-29; type: functional, cell-based, Homo sapiens; conditions: Homo sapiens, HT-29;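 also: growth inhibition of human HT-29 cells, read out by a cell viability assay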
Description: SANGER: Inhibition of human HT-29 cell growth in a cell viability assay.

[13] = tested on: HTC-C3; type: functional, cell-based, Homo sapiens; conditions: Homo sapiens, HTC-C3;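 also: inhibition of cell growth, read out with a cell viability assay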
Description: SANGER: Inhibition of human HTC-C3 cell growth in a cell viability assay.

[14] = tested on: IGROV-1; type: functional, cell-based, Homo sapiens; conditions: Homo sapiens, IGROV-1;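 also: reduction of IGROV-1 cell growth, read out with a viability assay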
Description: SANGER: Inhibition of human IGROV-1 cell growth in a cell viability assay.

[15] = tested on: KALS-1; type: functional, cell-based, Homo sapiens; conditions: Homo sapiens, KALS-1;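 also: growth inhibition of KALS-1 cells, determined with a cell viability assay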
Description: SANGER: Inhibition of human KALS-1 cell growth in a cell viability assay.

[16] = tested on: KNS-81-FD; type: functional, cell-based, Homo sapiens; conditions: Homo sapiens, KNS-81-FD;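 also: growth inhibition of KNS-81-FD cells, read out with a cell viability assay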
Description: SANGER: Inhibition of human KNS-81-FD cell growth in a cell viability assay.

[17] = tested on: KP-N-YS; type: functional, cell-based; conditions: Homo sapiens;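 also: cell viability assay measuring inhibition of cell line growth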
Description: SANGER: Inhibition of human KP-N-YS cell growth in a cell viability assay.

[18] = tested on: KYSE-510; type: functional, cell-based, Homo sapiens; conditions: Homo sapiens, KYSE-510;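 also: cell viability readout used to measure how strongly growth of the cell line is suppressed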
Description: SANGER: Inhibition of human KYSE-510 cell growth in a cell viability assay.

[19] = tested on: LB1047-RCC; type: functional, cell-based, Homo sapiens; conditions: Homo sapiens, LB1047-RCC;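 also: inhibition of cell growth, determined with a cell viability assay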
Description: SANGER: Inhibition of human LB1047-RCC cell growth in a cell viability assay.

[20] = tested on: LB831-BLC; type: functional, cell-based, Homo sapiens; conditions: Homo sapiens, LB831-BLC;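 also: growth inhibition of LB831-BLC cells, read out with a cell viability assay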
Description: SANGER: Inhibition of human LB831-BLC cell growth in a cell viability assay.

[21] = tested on: LCLC-103H cell line; type: functional, cell-based, Homo sapiens; conditions: Homo sapiens, LCLC-103H
Description: SANGER: Inhibition of human LCLC-103H cell growth in a cell viability assay.

[22] = tested on: NB10; type: functional, cell-based, Homo sapiens; conditions: Homo sapiens, NB10;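 also: growth inhibition of NB10 cells, read out by a cell viability assay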
Description: SANGER: Inhibition of human NB10 cell growth in a cell viability assay.

[23] = tested on: NCI-H1299; type: functional, cell-based, Homo sapiens; conditions: Homo sapiens, NCI-H1299;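 also: growth inhibition of human NCI-H1299 cells, read out by a cell viability assay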
Description: SANGER: Inhibition of human NCI-H1299 cell growth in a cell viability assay.

[24] = tested on: NCI-H2030; type: functional, cell-based, Homo sapiens; conditions: Homo sapiens, NCI-H2030;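 also: growth inhibition of human NCI-H2030 cells, read out by a cell viability assay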
Description: SANGER: Inhibition of human NCI-H2030 cell growth in a cell viability assay.

[25] = tested on: NCI-H28; type: functional, cell-based, Homo sapiens; conditions: Homo sapiens, NCI-H28;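 also: growth inhibition of human NCI-H28 cells, read out as cell viability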
Description: SANGER: Inhibition of human NCI-H28 cell growth in a cell viability assay.

[26] = tested on: NCI-H69; type: functional, cell-based; conditions: Homo sapiens;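 also: growth inhibition of the cell line, read out with a cell viability assay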
Description: SANGER: Inhibition of human NCI-H69 cell growth in a cell viability assay.

[27] = tested on: NH-12; type: functional, cell-based, Homo sapiens; conditions: Homo sapiens, NH-12;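 also: growth inhibition of NH-12 cells, read out with a cell viability assay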
Description: SANGER: Inhibition of human NH-12 cell growth in a cell viability assay.

[28] = tested on: NOS-1; type: functional, cell-based, Homo sapiens; conditions: Homo sapiens, NOS-1;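 also: growth inhibition of the human NOS-1 cell line, read out with a cell viability assay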
Description: SANGER: Inhibition of human NOS-1 cell growth in a cell viability assay.

[29] = tested on: NY; type: functional, cell-based, Homo sapiens; conditions: Homo sapiens, NY
Description: SANGER: Inhibition of human NY cell growth in a cell viability assay.

[30] = tested on: OAW-42; type: functional, cell-based, Homo sapiens; conditions: Homo sapiens, OAW-42;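 also: growth inhibition of OAW-42 cells, read out with a cell viability assay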
Description: SANGER: Inhibition of human OAW-42 cell growth in a cell viability assay.

[31] = tested on: RKO; type: functional, cell-based, Homo sapiens; conditions: Homo sapiens, RKO;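 also: growth inhibition of human RKO cells, read out with a cell viability assay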
Description: SANGER: Inhibition of human RKO cell growth in a cell viability assay.

[32] = tested on: RPMI-8226; type: functional, cell-based; conditions: Homo sapiens
Description: SANGER: Inhibition of human RPMI-8226 cell growth in a cell viability assay.

[33] = tested on: SK-MEL-28; type: functional, cell-based; conditions: Homo sapiens;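 also: growth inhibition of human SK-MEL-28 cells, read out with a cell viability assay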
Description: SANGER: Inhibition of human SK-MEL-28 cell growth in a cell viability assay.

[34] = tested on: SK-MEL-30; type: functional, cell-based; conditions: Homo sapiens;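 also: growth inhibition of SK-MEL-30 cells, determined with a cell viability assay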
Description: SANGER: Inhibition of human SK-MEL-30 cell growth in a cell viability assay.

[35] = tested on: SK-N-AS; type: functional, cell-based, Homo sapiens; conditions: Homo sapiens, SK-N-AS;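 also: growth inhibition of human SK-N-AS cells, measured with a cell viability assay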
Description: SANGER: Inhibition of human SK-N-AS cell growth in a cell viability assay.

[36] = tested on: SW1417; type: functional, cell-based, Homo sapiens; conditions: Homo sapiens, SW1417;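 also: growth inhibition of human SW1417 cells, read out with a cell viability assay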
Description: SANGER: Inhibition of human SW1417 cell growth in a cell viability assay.

[37] = tested on: SW948; type: functional, cell-based, Homo sapiens; conditions: Homo sapiens, SW948;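 also: growth inhibition of SW948 cells, read out with a cell viability assay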
Description: SANGER: Inhibition of human SW948 cell growth in a cell viability assay.

[38] = tested on: SW 954; type: functional, cell-based, Homo sapiens; conditions: Homo sapiens, SW 954;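 also: growth inhibition of SW954 human cancer cells, read out as cell viability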
Description: SANGER: Inhibition of human SW954 cell growth in a cell viability assay.

[39] = tested on: 647-V; type: functional, cell-based, Homo sapiens; conditions: Homo sapiens, 647-V;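 also: growth inhibition of 647-V cells, read out with a cell viability assay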
Description: SANGER: Inhibition of human 647-V cell growth in a cell viability assay.

[40] = tested on: A101D; type: functional, cell-based, Homo sapiens; conditions: Homo sapiens, A101D;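 also: growth inhibition of the cell line, measured with a viability assay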
Description: SANGER: Inhibition of human A101D cell growth in a cell viability assay.

[41] = tested on: A3-KAW; type: functional, cell-based; conditions: Homo sapiens;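 also: growth inhibition of human A3-KAW cells, read out with a cell viability assay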
Description: SANGER: Inhibition of human A3-KAW cell growth in a cell viability assay.

[42] = tested on: A4-Fuk; type: functional, cell-based; conditions: Homo sapiens;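 also: growth inhibition of A4-Fuk cells, read out by a cell viability assay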
Description: SANGER: Inhibition of human A4-Fuk cell growth in a cell viability assay.

[43] = tested on: AGS; type: functional, cell-based, Homo sapiens; conditions: Homo sapiens, AGS;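 also: growth inhibition of AGS cells, determined with a cell viability assay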
Description: SANGER: Inhibition of human AGS cell growth in a cell viability assay.

[44] = tested on: ATN-1; type: functional, cell-based; conditions: Homo sapiens;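 also: growth inhibition of human ATN-1 cells, read out with a cell viability assay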
Description: SANGER: Inhibition of human ATN-1 cell growth in a cell viability assay.

[45] = tested on: BFTC-909; type: functional, cell-based, Homo sapiens; conditions: Homo sapiens, BFTC-909
Description: SANGER: Inhibition of human BFTC-909 cell growth in a cell viability assay.

[46] = tested on: BHY; type: functional, cell-based, Homo sapiens; conditions: Homo sapiens, BHY;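 also: cell growth inhibition read out by a viability assay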
Description: SANGER: Inhibition of human BHY cell growth in a cell viability assay.

[47] = tested on: C8166; type: functional, cell-based; conditions: Homo sapiens;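 also: growth inhibition of human C8166 cells measured by a cell viability assay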
Description: SANGER: Inhibition of human C8166 cell growth in a cell viability assay.

[48] = tested on: UMC-11; type: functional, cell-based, Homo sapiens; conditions: Homo sapiens, UMC-11;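 also: growth inhibition of UMC-11 cells, read out with a cell viability assay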
Description: SANGER: Inhibition of human UMC-11 cell growth in a cell viability assay.

[49] = tested on: no-10; type: functional, cell-based, Homo sapiens; conditions: Homo sapiens;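 also: growth inhibition of no-10 cells, read out with a cell viability assay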
Description: SANGER: Inhibition of human no-10 cell growth in a cell viability assay.

[50] = tested on: CAS-1; type: functional, cell-based, Homo sapiens; conditions: Homo sapiens, CAS-1;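 also: growth inhibition of CAS-1 cells, measured with a cell viability assay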
Description: SANGER: Inhibition of human CAS-1 cell growth in a cell viability assay.

[51] = tested on: COLO-680N; type: functional, cell-based, Homo sapiens; conditions: Homo sapiens, COLO-680N;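 also: cell viability assay used to measure inhibition of COLO-680N cell growth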
Description: SANGER: Inhibition of human COLO-680N cell growth in a cell viability assay.

[52] = tested on: SK-LMS-1; type: functional, cell-based, Homo sapiens; conditions: Homo sapiens, SK-LMS-1;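 also: growth inhibition of human SK-LMS-1 cells, read out with a cell viability assay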
Description: SANGER: Inhibition of human SK-LMS-1 cell growth in a cell viability assay.

Measured: IC50

COc1cc(F)c(F)c(Nc2ccc(I)cc2F)c1NS(=O)(=O)C1(CC(O)CO)CC1 (centres undefined)
2.41 µM: [16]
1.85 µM: [42]
0.115 µM: [33]
0.0433 µM: [35]
1.09 µM: [19]
0.182 µM: [12]
> 5 µM: [1] | [2] | [3] | [4] | [6] | [9] | [10] | [15] | [17] | [18] | [20] | [21] | [22] | [23] | [24] | [25] | [26] | [28] | [29] | [30] | [34] | [36] | [37] | [38] | [39] | [41] | [44] | [45] | [47] | [48] | [49] | [50] | [51]
1.12 µM: [11]
0.0869 µM: [8]
1.06 µM: [5]
4.51 µM: [32]
0.0512 µM: [40]
3.29 µM: [46]
1.2 µM: [27]
0.103 µM: [7]
1.39 µM: [31]
0.24 µM: [43]
0.122 µM: [13]
1.78 µM: [14]

O=C1N=C(NCc2cccs2)S/C1=C\c1ccc2ncccc2c1
2.06 µM: [42]
> 5 µM: [1] | [2] | [3] | [4] | [5] | [6] | [7] | [8] | [9] | [10] | [11] | [12] | [13] | [14] | [15] | [16] | [17] | [18] | [20] | [21] | [22] | [23] | [24] | [25] | [26] | [27] | [28] | [29] | [30] | [31] | [32] | [33] | [34] | [35] | [36] | [37] | [38] | [39] | [40] | [41] | [43] | [44] | [45] | [46] | [47] | [48] | [49] | [50] | [51]
3.24 µM: [19]

COC(=O)CNC(=O)C(=O)OC
112 µM: [18]
2620 µM: [37]
825 µM: [5]
465 µM: [46]
120 µM: [52]
3160 µM: [8]
624 µM: [15]
995 µM: [49]
1390 µM: [14]
2150 µM: [23]
725 µM: [29]
846 µM: [12]
> 4000 µM: [26] | [27]
15.8 µM: [41]
175 µM: [13]
163 µM: [40]
85.4 µM: [38]
601 µM: [44]
147 µM: [48]
1560 µM: [2]
252 µM: [45]
1850 µM: [16]
281 µM: [4]
524 µM: [22]
220 µM: [1]
425 µM: [30]
880 µM: [21]
1350 µM: [25]
2460 µM: [31]
242 µM: [51]
1680 µM: [17]
93.5 µM: [39]
626 µM: [34]
16 µM: [3]
45 µM: [42]
1890 µM: [7] | [10]
105 µM: [24]
1740 µM: [9]
264 µM: [50]
513 µM: [6]
870 µM: [32]
1040 µM: [47]
569 µM: [33]
772 µM: [28]
1030 µM: [11]
629 µM: [43]
971 µM: [35]
50 µM: [19]
911 µM: [20]

CN(Cc1cnc2nc(N)nc(N)c2n1)c1ccc(C(=O)N[C@@H](CCC(=O)O)C(=O)O)cc1 [METHOTREXATE]
> 0.2 µM: [1] | [2] | [3] | [5] | [6] | [8] | [9] | [11] | [13] | [15] | [16] | [17] | [19] | [20] | [22] | [23] | [24] | [25] | [27] | [28] | [29] | [30] | [31] | [33] | [34] | [35] | [36] | [37] | [38] | [39] | [40] | [45] | [46] | [47] | [48] | [49] | [50] | [51]
0.01 µM: [10]
0.174 µM: [21]
0.0917 µM: [18]
0.00892 µM: [41]
0.00392 µM: [44]
0.153 µM: [12]
0.0216 µM: [4]
0.101 µM: [32]
0.0382 µM: [42]

O=C(c1cc(Cc2n[nH]c(=O)c3ccccc23)ccc1F)N1CCN(C(=O)C2CC2)CC1 [OLAPARIB]
> 5 µM: [1] | [2] | [3] | [4] | [5] | [6] | [8] | [9] | [10] | [11] | [12] | [13] | [15] | [16] | [17] | [18] | [19] | [20] | [21] | [22] | [23] | [24] | [25] | [26] | [27] | [28] | [29] | [30] | [31] | [32] | [33] | [34] | [35] | [36] | [37] | [38] | [39] | [40] | [41] | [42] | [44] | [45] | [46] | [47] | [48] | [49] | [50] | [51]
2.28 µM: [7]
